Converted amounts (≈) assume the structure as drawn.

The record followed here is ChEMBL document CHEMBL1135344, “Synthesis and antiviral/antiproliferative activity of some N-sulphonylbenzimidazoles” (Bioorg Med Chem Lett, 2002).

Experiment [1] has as its system HEL. Nature of the experiment: Cytotoxic concentration reducing HEL cell growth by 50%. Format: functional. Conditions: Homo sapiens.
Experiment [2] deals with HEL. Nature of the experiment: Minimum cytotoxic concentration against HEL cell morphology. Format: functional. Conditions: Homo sapiens.
In experiment [3] the test system is Human alphaherpesvirus 3. Put plainly: Antiviral activity was tested against TK- Varicella-Zoster virus 07/1 which reduces virus plaque formation by 50%. Format: functional, organism-based.
In experiment [4] the test system is Human alphaherpesvirus 3. Nature of the experiment: Antiviral activity was tested against TK+ Varicella-Zoster virus OKA which reduces virus plaque formation by 50%. Format: functional, organism-based.
The test system of experiment [5] is Human alphaherpesvirus 3. Nature of the experiment: Antiviral activity was tested against TK+ Varicella-Zoster virus YS which reduces virus plaque formation by 50%. In kind it is functional, organism-based.
The test system of experiment [6] is Human alphaherpesvirus 3. Nature of the experiment: Antiviral activity was tested against TK- Varicella-Zoster virus YS/R which reduces virus plaque formation by 50%. Format: functional, organism-based.
Experiment [7] relates to Human betaherpesvirus 5. Nature of the experiment: Antiviral activity was tested against human cytomegalovirus AD-169 which reduces virus plaque formation by 50%. Format: functional, organism-based.
Experiment [8] has as its system Human betaherpesvirus 5. Nature of the experiment: Antiviral activity was tested against human cytomegalovirus Davis which reduces virus plaque formation by 50%. Format: functional, organism-based.

Take `Nc1nc2c(ncn2COCCO)c(=O)[nH]1` [ACYCLOVIR]: the CC50 (in general, the concentration giving 50% cytotoxicity) in the experiment with HEL [1] was greater than 200 µg/mL. The same compound gave an MCC in the experiment with HEL [2] greater than 50 µg/mL. Further, the IC50 (usually the concentration at which inhibition is half-maximal) with Human alphaherpesvirus 3 [3] stood at 6.5 µg/mL (≈ 28.9 µM); in the experiment on Human alphaherpesvirus 3 [4], 0.35 µg/mL (≈ 1.55 µM); in the experiment with Human alphaherpesvirus 3 [5], 0.38 µg/mL (≈ 1.69 µM); with Human alphaherpesvirus 3 [6], 3.1 µg/mL (≈ 13.8 µM).
On to `O=c1[nH]c(=O)n([C@H]2C[C@H](O)[C@@H](CO)O2)cc1/C=C/Br` [BRIVUDINE], for which, in the experiment with HEL [1], the CC50 is greater than 200 µg/mL. In the experiment on HEL [2], this compound displayed an MCC greater than 50 µg/mL. In addition, the IC50 was determined as 6.8 µg/mL (≈ 20.4 µM) in the experiment on Human alphaherpesvirus 3 [3], 0.002 µg/mL (≈ 0.006 µM) with Human alphaherpesvirus 3 [4], 0.003 µg/mL (≈ 0.00901 µM) in the experiment on Human alphaherpesvirus 3 [5] and 6.4 µg/mL (≈ 19.2 µM) with Human alphaherpesvirus 3 [6].
The compound `Nc1ccn(C[C@@H](CO)OCP(=O)(O)O)c(=O)n1.O.O` [CIDOFOVIR] had a CC50 in the experiment with HEL [1] greater than 50 µg/mL. The compound further displayed an MCC with HEL [2] greater than 50 µg/mL. The IC50 with Human betaherpesvirus 5 [7] came out at 0.1 µg/mL; in the experiment on Human betaherpesvirus 5 [8] it was 0.3 µg/mL.
In turn, `Nc1nc2c(ncn2COC(CO)CO)c(=O)[nH]1` [GANCICLOVIR] registered a CC50 with HEL [1] greater than 50 µg/mL. In the experiment on HEL [2], this compound gave an MCC greater than 50 µg/mL. The results for the IC50 in the experiment on Human betaherpesvirus 5 [7] and with Human betaherpesvirus 5 [8] were 0.3 µg/mL (≈ 1.18 µM) and 0.4 µg/mL (≈ 1.57 µM), respectively.
